One may read the IC50 as the point on the concentration scale where inhibition reaches its midpoint. A lower IC50 goes with higher potency.

The assay addresses acetylcholinesterase (AChE) (Electrophorus electricus, UniProt O42275). The assay can be described thus: Ellman colorimetric assay, acetylthiocholine hydrolysis. It is filed as biochemical. A general note: Ellman's reagent forms a yellow product with free thiols.

acetylcholinesterase (AChE), sequence (O42275 24-633): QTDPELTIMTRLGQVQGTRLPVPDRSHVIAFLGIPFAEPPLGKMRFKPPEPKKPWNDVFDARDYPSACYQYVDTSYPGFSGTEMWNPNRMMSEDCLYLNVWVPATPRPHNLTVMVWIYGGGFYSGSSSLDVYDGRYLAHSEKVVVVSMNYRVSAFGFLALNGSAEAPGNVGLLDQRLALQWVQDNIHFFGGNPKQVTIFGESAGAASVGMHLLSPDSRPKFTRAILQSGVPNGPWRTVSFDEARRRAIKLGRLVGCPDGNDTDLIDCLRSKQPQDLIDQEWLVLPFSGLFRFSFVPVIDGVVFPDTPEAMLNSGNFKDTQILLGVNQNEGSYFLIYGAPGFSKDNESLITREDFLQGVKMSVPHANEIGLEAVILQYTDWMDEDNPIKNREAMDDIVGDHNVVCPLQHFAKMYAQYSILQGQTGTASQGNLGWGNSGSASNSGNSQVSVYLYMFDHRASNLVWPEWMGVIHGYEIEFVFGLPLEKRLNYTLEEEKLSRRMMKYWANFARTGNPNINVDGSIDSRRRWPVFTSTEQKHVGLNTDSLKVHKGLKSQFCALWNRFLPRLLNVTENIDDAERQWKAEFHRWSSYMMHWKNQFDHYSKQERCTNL

Turning to `COc1ccc2c(c1)C(N1CCCC1=O)CC(c1cccc(C3CC(N4CCCC4=O)c4cc(OC)ccc4N3)c1)N2` (stereo not shown) [5c, 1,3-bis(6'-Methoxy-4'-(2-oxopyrrolidinyl-1)-1',2',3',4'-tetrahydroquinolin-2-yl)benzene], half-maximal inhibition (IC50) was put at 122 µM.

(Values after PMC6270290, “Synthesis of Bistetrahydroquinolines as Potential Anticholinesterasic Agents by Double Diels-Alder Reactions” (Molecules, 2013).)
